Results on one molecule are retold here after PMC8750417, “Intracellular Amplifiers of Reactive Oxygen Species Affecting Mitochondria as Radiosensitizers” (Cancers, 2021).

Assay [1] concerns A2780 cells. Briefly: Mechanism of death of A2780 cells (Annexin A5/PI flow cytometry). The conditions noted are these: A2780, 48 h. It counts as cell-based, human. The procedure: Figure S54. Effect of prodrugs 1 and 2c (48 h incubation) on the intracellular amount of GSH in Jurkat cells. *: p< 0.05; ns: non-significant (Student’s t test). Detailed experimental description is provided above.
Study of the mechanism of death of A2780 cells induced by prodrug 2c and controls A2780 cells were seeded into 96 well culture plates at the same cell concentration and in the same medium as applied for the above described MTT assay (48 h incubation with the prodrugs). The next day, stock solutions of prodrugs of different concentrations (1 µ L, solvent DMSO, final concentrations in wells were 5, 10 and 30 µ M) or carrier only (DMSO, 1 µ L, final concentration 1 %, v/v) were added to the wells and incubated in the chamber filled with CO 2 (5%). After 48 h supernatants were transferred into 1.5 mL Eppendorf tubes and 100 µ L of DPBS was added to transfer supernatant residue into tube. Trypsin (0.25%, 50 µ L) was then added to well to detach the cells. All supernatants in Eppendorf tubes were combined back into wells. After gently pipetting up and down, 50 µ L of cell solutions was transferred into a new Eppendorf tube and incubated with 200 µ L of staining solution, consisting of Annexin A5-Fitc (5 µ L) and propidium iodide (PI, 330 ng) per 1 mL buffer (conc. 1X). […]
A general note: Flow cytometry measures light scatter and fluorescence of single cells or particles in a stream.

The test system of assay [2] is A2780 cells. Briefly: Intracellular carbonyl derivatives (DCCH), A2780. It counts as cell-based, human. The settings on record: 24 h. The procedure: and the cells were incubated in the dark chamber filled with CO2 (5%) at 37 °C for 20 min.
Next, the cells were detached from the culture dish using trypsin/EDTA (0.025%/0.01%, v/v, 50 µL). The cells were re-suspended in RPMI 1640 medium containing 5% FBS, 1% L-glutamine and 1% penicillin/streptomycin (100 µL). Finally, the fluorescence of live cells (λex = 488 nm, λem = 578 nm) in the suspensions was determined by using flow cytometry […]
Figure S60. Representative flow cytometric histograms used for setting up Figures 4B […]
Monitoring intracellular carbonyl derivatives
A2780 cells were seeded into 24 well culture plates at the same cell concentration and in the same medium as applied for the assay for monitoring tROS described above. The next day, stock solutions of prodrugs of different concentrations (5 μL of stock solutions in DMSO, final concentration of prodrugs 5 and 10 μM; control 7 2 and 5 µM) or carrier only (DMSO, 5 µL, final concentration 1 %, v/v) were added to the wells and incubated in the chamber filled with CO2 (5%). After 24 h, the cells were washed twice with DPBS buffer and the medium was replaced with HBSS (Hanks' Balanced Salt solution, 500 μL). […]
Finally, the fluorescence of live cells (λex = 488 nm, λem = 530 nm) in the suspensions was determined by using flow cytometry (Figure 4C). […]

As for `CC1(C)OB(c2ccc(COC(=O)N(Cc3cn(Cc4ccc(Cn5cc(Cc6ccccc6)nn5)cc4)nn3)[c-]3cccc3)cc2)OC1(C)C.[Fe+2].c1cc[cH-]c1` [2c], the “mechanism of cell death” value in the assay with A2780 cells [1] is “mainly via necrosis”. Moreover, the “formation of intracellular carbonyl derivatives” value with A2780 cells [2] is recorded as “did not induce formation of significant amounts of carbonyl derivatives”.
